# In ChEMBL document CHEMBL1201862, “PubChem BioAssay data set” (2004):
# Where “and” joins values, the source holds several entries; their conditions need not be identical. Equal entries are not always repeated. Structures can show the parent of a compound that is named as a salt.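 Compound exposure: 48 hours, 5 concentrations, 96-well plates. Here, GI50 denotes the concentration required for 50% inhibition of growth.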 Calls of active or inactive are those of the source. Rule as the data show it: active = GI50 up to about 1.1 µM and inactive = higher.
# Key:
# Assay in all cases: DTP human tumour cell line panel, 48 h
# OVCAR-3 = system: OVCAR-3
# SF-268 = system: SF-268
# HCC 2998 = system: HCC 2998
# MOLT-4 = system: MOLT-4
# 786-0 = system: 786-0
# SW-620 = system: SW-620
# NCI-H226 = system: NCI-H226
# OVCAR-8 = system: OVCAR-8
# SF-539 = system: SF-539
# SF-295 = system: SF-295
# SR = system: SR
# M19-MEL = system: M19-MEL
# DLD-1 = system: DLD-1
# M14 = system: M14
# HT-29 = system: HT-29
# SK-MEL-28 = system: SK-MEL-28
# SNB-78 = system: SNB-78
# EKVX = system: EKVX
# DMS-114 = system: DMS-114
# CCRF-CEM = system: CCRF-CEM
# COLO 205 = system: COLO 205
# A549 = system: A549
# TK-10 = system: TK-10
# SK-OV-3 = system: SK-OV-3
# CAKI-1 = system: CAKI-1
# SK-MEL-5 = system: SK-MEL-5
# NCI-H23 = system: NCI-H23
# A498 = system: A498
# SNB-75 = system: SNB-75
# UACC-257 = system: UACC-257
# SN12C = system: SN12C
# HCT-116 = system: HCT-116
# KM12 = system: KM12
# K562 = system: K562
# Malme-3M = system: Malme-3M
# SK-MEL-2 = system: SK-MEL-2
# LXFL 529 = system: LXFL 529
# OVCAR-4 = system: OVCAR-4
# HOP-92 = system: HOP-92
# RPMI-8226 = system: RPMI-8226
# SNB-19 = system: SNB-19
# HL-60 = system: HL-60
# LOX IMVI = system: LOX IMVI
# HOP-62 = system: HOP-62
# NCI-H522 = system: NCI-H522
# XF498 = system: XF498
# DMS-273 = system: DMS-273
# UACC-62 = system: UACC-62
# UO-31 = system: UO-31
# IGROV-1 = system: IGROV-1
# T47D = system: T47D
# OVCAR-5 = system: OVCAR-5
# MDA-MB-435 = system: MDA-MB-435
# ACHN = system: ACHN
# U-251 = system: U-251
# MDA-MB-231 = system: MDA-MB-231
# HCT-15 = system: HCT-15
# Hs-578T = system: Hs-578T
# RXF 393 = system: RXF 393
# NCI-H460 = system: NCI-H460
# DU-145 = system: DU-145
# NCI/ADR-RES = system: NCI/ADR-RES
# BT-549 = system: BT-549
# MCF7 = system: MCF7
# KM-20L2 = system: KM-20L2
# PC-3 = system: PC-3
# MDA-N = system: MDA-N
structure (smiles),measurement,setting,value
O=S1(=O)OCCOS(=O)(=O)C1(I)I,GI50,OVCAR-3,24 µM (inactive)
same,GI50,SF-268,20.4 µM (inactive)
same,GI50,HCC 2998,20.8 µM (inactive)
same,GI50,MOLT-4,15.9 µM (inactive)
same,GI50,786-0,20.1 µM (inactive)
same,GI50,SW-620,16.8 µM (inactive)
same,GI50,NCI-H226,15.3 µM (inactive)
same,GI50,OVCAR-8,20.7 µM (inactive)
same,GI50,SF-539,21.7 µM (inactive)
same,GI50,SF-295,26.3 µM (inactive)
same,GI50,SR,12.3 µM (inactive)
same,GI50,M19-MEL,17.7 µM (inactive)
same,GI50,DLD-1,16.9 µM (inactive)
same,GI50,M14,20 µM (inactive)
same,GI50,HT-29,24.8 µM (inactive)
same,GI50,SK-MEL-28,19.9 µM (inactive)
same,GI50,SNB-78,23.2 µM (inactive)
same,GI50,EKVX,27.5 µM (inactive)
same,GI50,DMS-114,18 µM (inactive)
same,GI50,CCRF-CEM,10.9 µM (inactive)
same,GI50,COLO 205,16.9 µM (inactive)
same,GI50,A549,26.2 µM (inactive)
same,GI50,TK-10,27.3 µM (inactive)
same,GI50,SK-OV-3,21.9 µM (inactive)
same,GI50,CAKI-1,17.3 µM (inactive)
same,GI50,SK-MEL-5,15.5 µM (inactive)
same,GI50,NCI-H23,11.1 µM (inactive)
same,GI50,A498,16.7 µM (inactive)
same,GI50,SNB-75,18.1 µM (inactive)
same,GI50,UACC-257,22.6 µM (inactive)
same,GI50,SN12C,17.5 µM (inactive)
same,GI50,HCT-116,16.3 µM (inactive)
same,GI50,KM12,18.9 µM (inactive)
same,GI50,K562,29.5 µM (inactive)
same,GI50,Malme-3M,20.4 µM (inactive)
same,GI50,SK-MEL-2,22 µM (inactive)
same,GI50,LXFL 529,11 µM (inactive)
same,GI50,OVCAR-4,19.7 µM (inactive)
same,GI50,HOP-92,13.7 µM (inactive)
same,GI50,RPMI-8226,9.12 µM (inactive)
same,GI50,SNB-19,26.5 µM (inactive)
same,GI50,HL-60,21.1 µM (inactive)
same,GI50,LOX IMVI,16.2 µM (inactive)
same,GI50,HOP-62,19.6 µM (inactive)
same,GI50,NCI-H522,18.7 µM (inactive)
same,GI50,XF498,18 µM (inactive)
same,GI50,DMS-273,20.6 µM (inactive)
same,GI50,UACC-62,14.7 µM (inactive)
same,GI50,UO-31,18.7 µM (inactive)
same,GI50,IGROV-1,25.3 µM (inactive)
CN(C)CCCN1c2ccccc2Sc2ccc(C(F)(F)F)cc21 [TRIFLUPROMAZINE HYDROCHLORIDE],GI50,T47D,14.6 µM (inactive)
same,GI50,SF-268,14 µM (inactive) and 15 µM (inactive)
same,GI50,MOLT-4,17.7 µM (inactive)
same,GI50,786-0,14.7 µM (inactive) and 14.1 µM (inactive)
same,GI50,SW-620,15.8 µM (inactive) and 17.2 µM (inactive)
same,GI50,OVCAR-8,15.6 µM (inactive)
same,GI50,SF-539,15.2 µM (inactive) and 19.1 µM (inactive)
same,GI50,SF-295,15.3 µM (inactive) and 16.8 µM (inactive)
same,GI50,OVCAR-5,17.1 µM (inactive)
same,GI50,MDA-MB-435,15.8 µM (inactive)
same,GI50,SR,18.1 µM (inactive) and 17.6 µM (inactive)
same,GI50,M19-MEL,17.5 µM (inactive)
same,GI50,ACHN,14.9 µM (inactive) and 15.4 µM (inactive)
same,GI50,DLD-1,17.2 µM (inactive)
same,GI50,HT-29,11.4 µM (inactive)
same,GI50,SK-MEL-28,16.3 µM (inactive) and 14.8 µM (inactive)
same,GI50,U-251,14.2 µM (inactive) and 15.7 µM (inactive)
same,GI50,SNB-78,15.7 µM (inactive)
same,GI50,MDA-MB-231,12.9 µM (inactive)
same,GI50,EKVX,17.6 µM (inactive) and 15.7 µM (inactive)
same,GI50,DMS-114,18.2 µM (inactive)
same,GI50,CCRF-CEM,20.3 µM (inactive) and 16.1 µM (inactive)
same,GI50,HCT-15,17.1 µM and 16.1 µM
same,GI50,Hs-578T,14.1 µM (inactive)
same,GI50,COLO 205,16.3 µM (inactive) and 16.7 µM (inactive)
same,GI50,RXF 393,13 µM (inactive) and 16 µM (inactive)
same,GI50,A549,17 µM (inactive) and 16.9 µM (inactive)
same,GI50,NCI-H460,16.4 µM (inactive) and 15 µM (inactive)
same,GI50,TK-10,17.4 µM (inactive) and 15.2 µM (inactive)
same,GI50,SK-OV-3,18.6 µM (inactive) and 16.6 µM (inactive)
same,GI50,CAKI-1,11.8 µM (inactive)
same,GI50,SK-MEL-5,17.4 µM (inactive)
same,GI50,NCI-H23,18.3 µM (inactive) and 16.5 µM (inactive)
same,GI50,A498,16.6 µM (inactive)
same,GI50,DU-145,17.2 µM (inactive)
same,GI50,SNB-75,12.1 µM (inactive) and 12.2 µM (inactive)
same,GI50,UACC-257,13.5 µM (inactive) and 15.3 µM (inactive)
same,GI50,SN12C,16 µM (inactive) and 17.3 µM (inactive)
same,GI50,HCT-116,14.2 µM (inactive) and 14.4 µM (inactive)
same,GI50,NCI/ADR-RES,17.2 µM (inactive)
same,GI50,KM12,17.2 µM (inactive) and 15.1 µM (inactive)
same,GI50,K562,> 10 µM (inactive) and 13.8 µM (inactive)
same,GI50,Malme-3M,16.4 µM (inactive) and 14.9 µM (inactive)
same,GI50,BT-549,12.8 µM (inactive)
same,GI50,SK-MEL-2,16 µM (inactive)
same,GI50,MCF7,16.1 µM (inactive)
same,GI50,LXFL 529,60 µM (inactive)
same,GI50,OVCAR-4,14.8 µM (inactive)
same,GI50,HOP-92,12.3 µM (inactive)
same,GI50,RPMI-8226,21.2 µM (inactive) and 14.9 µM (inactive)
same,GI50,KM-20L2,11.3 µM (inactive)
same,GI50,SNB-19,16.6 µM (inactive) and 15 µM (inactive)
same,GI50,HL-60,15.7 µM (inactive) and 12.7 µM (inactive)
same,GI50,LOX IMVI,15.5 µM (inactive) and 13.9 µM (inactive)
same,GI50,PC-3,15.2 µM (inactive)
same,GI50,NCI-H522,17.9 µM (inactive) and 18.1 µM (inactive)
same,GI50,DMS-273,14.7 µM (inactive)
same,GI50,MDA-N,13.4 µM (inactive)
same,GI50,UACC-62,16.6 µM (inactive) and 16.8 µM (inactive)
same,GI50,UO-31,15.5 µM (inactive) and 14.3 µM (inactive)
same,GI50,IGROV-1,15.9 µM (inactive) and 15.6 µM (inactive)
